{"source": "paper PMC5086599", "about": "(Viruses, 2016)", "key": {"[1]": {"test_system": "HIV-1 WT virus (HXB2) in Hela P4/R5 cells", "experiment": "HIV-1 single cycle replication assay, WT virus", "type": "cell-based", "details": "read-out: EC50 against WT virus"}, "[2]": {"test_system": "HIV-1 K103N mutant virus in Hela P4/R5 cells", "experiment": "HIV-1 single cycle replication assay, K103N mutant virus", "type": "cell-based"}, "[3]": {"test_system": "HIV-1 K103N/Y188F mutant virus in Hela P4/R5 cells", "experiment": "HIV-1 single cycle replication assay, K103N/Y188F mutant virus", "type": "cell-based"}, "[4]": {"test_system": "HIV-1 K103A mutant virus in Hela P4/R5 cells", "experiment": "HIV-1 single cycle replication assay, K103A mutant virus", "type": "cell-based"}, "[5]": {"test_system": "HIV-1 K103E mutant virus in Hela P4/R5 cells", "experiment": "HIV-1 single cycle replication assay, K103E mutant virus", "type": "cell-based"}, "[6]": {"test_system": "HIV-1 Y181C mutant virus in Hela P4/R5 cells", "experiment": "HIV-1 single cycle replication assay, Y181C mutant virus", "type": "cell-based"}, "[7]": {"test_system": "HIV-1 Y188L mutant virus in Hela P4/R5 cells", "experiment": "HIV-1 single cycle replication assay, Y188L mutant virus", "type": "cell-based"}, "[8]": {"test_system": "HIV-1 Y181F mutant virus in Hela P4/R5 cells", "experiment": "HIV-1 single cycle replication assay, Y181F mutant virus", "type": "cell-based"}, "[9]": {"test_system": "HIV-1 Y188F mutant virus in Hela P4/R5 cells", "experiment": "HIV-1 single cycle replication assay, Y188F mutant virus", "type": "cell-based"}, "[10]": {"test_system": "HIV-1 Y181F/Y188F mutant virus in Hela P4/R5 cells", "experiment": "HIV-1 single cycle replication assay, Y181F/Y188F mutant virus", "type": "cell-based"}, "HIV-1 WT RT (non-bio-RT)": {"test_system": "HIV-1 WT RT (non-bio-RT)", "design": "method as in earlier work", "details": "reported previously, read-out: Inhibitory potency IC50 versus WT RT (non-biotinylated); cited from earlier work"}, "[11]": {"details": "Human immunodeficiency virus 1, HXB2, single-cycle replication, Hela P4/R5 cells, 48 h, mean ± SD"}, "[12]": {"details": "Human immunodeficiency virus 1, read-out: EC50 against K103N mutant virus"}, "[13]": {"details": "Human immunodeficiency virus 1, read-out: EC50 against K103N/Y188F mutant virus"}, "[14]": {"details": "Human immunodeficiency virus 1, read-out: EC50 against K103A mutant virus"}, "[15]": {"details": "Human immunodeficiency virus 1, read-out: EC50 against K103E mutant virus"}, "[16]": {"details": "Human immunodeficiency virus 1, read-out: EC50 against Y181C mutant virus"}, "[17]": {"details": "Human immunodeficiency virus 1, read-out: EC50 against Y188L mutant virus"}, "[18]": {"details": "Human immunodeficiency virus 1, read-out: EC50 against Y181F mutant virus"}, "[19]": {"details": "Human immunodeficiency virus 1, read-out: EC50 against Y188F mutant virus"}, "[20]": {"details": "Human immunodeficiency virus 1, read-out: EC50 against Y181F/Y188F mutant virus"}}, "note": "Read-outs that look alike come from different tables or passages of the source."}
{"compound": "Cc1ccnc2c1NC(=O)c1cccnc1N2C1CC1", "note": "[NVP, nevirapine]", "values": [{"measurement": "EC50", "setting": "[1]; [11]", "value": "95 ± 6", "unit": "nM"}, {"measurement": "EC50", "setting": "[2]; Human immunodeficiency virus 1, single-cycle replication, Hela P4/R5 cells, mean ± SD, read-out: EC50 against K103N mutant virus", "value": "5080 ± 1690", "unit": "nM"}, {"measurement": "EC50", "setting": "[3]; Human immunodeficiency virus 1, single-cycle replication, Hela P4/R5 cells, mean ± SD, read-out: EC50 against K103N/Y188F mutant virus", "value": 14500, "unit": "nM"}, {"measurement": "EC50", "setting": "[4]; Human immunodeficiency virus 1, single-cycle replication, Hela P4/R5 cells, mean ± SD, read-out: EC50 against K103A mutant virus", "value": "216 ± 51", "unit": "nM"}, {"measurement": "EC50", "setting": "[5]; Human immunodeficiency virus 1, single-cycle replication, Hela P4/R5 cells, mean ± SD, read-out: EC50 against K103E mutant virus", "value": "65 ± 27", "unit": "nM"}, {"measurement": "EC50", "setting": "[6]; Human immunodeficiency virus 1, single-cycle replication, Hela P4/R5 cells, mean ± SD, read-out: EC50 against Y181C mutant virus", "value": "2270 ± 197", "unit": "nM"}, {"measurement": "EC50", "setting": "[7]; Human immunodeficiency virus 1, single-cycle replication, Hela P4/R5 cells, mean ± SD, read-out: EC50 against Y188L mutant virus", "value": "> 25000", "unit": "nM"}, {"measurement": "EC50", "setting": "[8]; Human immunodeficiency virus 1, single-cycle replication, Hela P4/R5 cells, mean ± SD, read-out: EC50 against Y181F mutant virus", "value": "37 ± 7", "unit": "nM"}, {"measurement": "EC50", "setting": "[9]; Human immunodeficiency virus 1, single-cycle replication, Hela P4/R5 cells, mean ± SD, read-out: EC50 against Y188F mutant virus", "value": "62 ± 11", "unit": "nM"}, {"measurement": "EC50", "setting": "[10]; Human immunodeficiency virus 1, single-cycle replication, Hela P4/R5 cells, mean ± SD, read-out: EC50 against Y181F/Y188F mutant virus", "value": "34 ± 2.5", "unit": "nM"}, {"measurement": "IC50", "setting": "HIV-1 WT RT (non-bio-RT)", "value": 137, "unit": "nM"}]}
{"compound": "CC(C)Nc1cccnc1N1CCN(C(=O)c2cc3cc(NS(C)(=O)=O)ccc3[nH]2)CC1", "note": "[DLV, delavirdine]", "values": [{"measurement": "EC50", "setting": "[1]; Human immunodeficiency virus 1, HXB2, 48 h", "value": "26 ± 7", "unit": "nM"}, {"measurement": "EC50", "setting": "[2]; [12]", "value": "2600 ± 346", "unit": "nM"}, {"measurement": "EC50", "setting": "[3]; [13]", "value": "1500 ± 43", "unit": "nM"}, {"measurement": "EC50", "setting": "[4]; [14]", "value": "38 ± 12", "unit": "nM"}, {"measurement": "EC50", "setting": "[5]; [15]", "value": "64 ± 7", "unit": "nM"}, {"measurement": "EC50", "setting": "[6]; [16]", "value": "1150 ± 301", "unit": "nM"}, {"measurement": "EC50", "setting": "[7]; [17]", "value": "913 ± 90", "unit": "nM"}, {"measurement": "EC50", "setting": "[8]; [18]", "value": "8.6 ± 1.3", "unit": "nM"}, {"measurement": "EC50", "setting": "[9]; [19]", "value": "14 ± 4", "unit": "nM"}, {"measurement": "EC50", "setting": "[10]; [20]", "value": "4.1 ± 0.12", "unit": "nM"}]}
{"compound": "O=C1Nc2ccc(Cl)cc2[C@@](C#CC2CC2)(C(F)(F)F)O1", "note": "[EFV, efavirenz]", "values": [{"measurement": "EC50", "setting": "[1]; [11]", "value": 1.2, "unit": "nM"}, {"measurement": "EC50", "setting": "[2]; [12]", "value": "69 ± 5.7", "unit": "nM"}, {"measurement": "EC50", "setting": "[3]; [13]", "value": "40 ± 8.1", "unit": "nM"}, {"measurement": "EC50", "setting": "[4]; [14]", "value": "2 ± 0.2", "unit": "nM"}, {"measurement": "EC50", "setting": "[5]; [15]", "value": "0.9 ± 0.3", "unit": "nM"}, {"measurement": "EC50", "setting": "[6]; [16]", "value": "1.4 ± 0.1", "unit": "nM"}, {"measurement": "EC50", "setting": "[7]; [17]", "value": "639 ± 63", "unit": "nM"}, {"measurement": "EC50", "setting": "[8]; [18]", "value": "0.5 ± 0.07", "unit": "nM"}, {"measurement": "EC50", "setting": "[9]; [19]", "value": "0.3 ± 0.05", "unit": "nM"}, {"measurement": "Y188F mutant virus more sensitive to inhibition than WT virus", "setting": "[9]; fold more sensitive than WT virus", "value": "~ 4 fold"}, {"measurement": "EC50", "setting": "[10]; [20]", "value": "0.4 ± 0.1", "unit": "nM"}, {"measurement": "IC50", "setting": "HIV-1 WT RT (non-bio-RT)", "value": 0.42, "unit": "nM"}]}
